Assay results: patent US20240382612A1, “BIOACTIVE CONJUGATE, PREPARATION METHOD THEREFOR AND USE THEREOF” (priority 2017, published 2024)

Key:
Format in all cases: in vivo, Balb/c-nu mice
[1] = system: human gastric cancer cell line NCI-N87; test: Experimental example 1: NCI-N87 gastric cancer subcutaneous xenograft, tumor inhibition; conditions: D21 after administration; IV, BIW×3W; BT001021 and Immu-132 3 mg/kg, toxins T-030 and SN-38 equimolar to ADC
Experimental: (§1) Tumor-bearing mice (6 mice/group) with tumor volume of 100-200 mm^3 were randomly grouped (the number of groups was determined according to sample number). The administration volume was 10 ml/kg, and the administration route was tail intravenous injection. The mice were administered twice a week, and tumor diameter was measured with a vernier caliper, and tumor volume was calculated based on the following calculation formula: V=0.5 a×b^2, wherein a and b stand for the long diameter and short diameter of a tumor respectively. Animal deaths were observed and recorded every day.
(§2) The tumor growth inhibition rate TGI (%) was calculated from the following formula to evaluate tumor inhibitory effect of antibody drug conjugates:
(§3) Specifically, in the experimental examples 1 and 2, tumor-bearing mice models were constructed by subcutaneous xenograft of a human gastric cancer cell line NCI-N87 or a human triple negative breast cancer cell line HCC1806. After the tumor volume was about 100 mm^3, the mice were randomly grouped, and intravenously administered with BT001021 twice a week for a total of 6 times. Changes in tumor volume and animal body weight were measured twice a week to evaluate the efficacy (tumor inhibitory effect) of the antibody drug conjugate on tumor-bearing mice.
NCI-N87 cells were cultured in a 1640 culture medium containing 10% fetal bovine serum at 37° C. and 5% CO2. NCI-N87 cells in the exponential growth stage were collected, resuspended in PBS to a suitable concentration, and inoculated subcutaneously into female Balb/c-nu mice to construct gastric cancer models. When the mean tumor volume was about 90 mm^3, the mice were randomly grouped into a physiological saline group, a BT001021 (3 mg/kg, IV, BIW×3W) group, a positive drug Immu-132 (3 mg/kg, IV, BIW×3W) group, a T030 group and a SN38 group according to the tumor size, followed by tail intravenous injection of corresponding drugs twice a week for a total of 6 times. After administration, the tumor volume and body weight of the mice were observed and measured regularly.

[2] = system: human breast cancer cell line HCC1806; test: Experimental example 2: HCC1806 breast cancer subcutaneous xenograft, tumor inhibition; conditions: 10 mg/kg, IV, BIW×3W
Experimental: as §1, §2, §3
HCC1806 cells were cultured in a 1640 culture medium containing 10% fetal bovine serum at 37° C. and 5% CO2. HCC1806 cells in the exponential growth stage were collected, resuspended in PBS in a suitable concentration, and inoculated subcutaneously into female Balb/c-nu to construct breast cancer models. When the mean tumor volume was about 130 mm^3, the mice were randomly grouped into a physiological saline group, a BT001021 (10 mg/kg, IV, BIW×3W) group and a positive drug Immu-132 (10 mg/kg, IV, BIW×3W) group according to the tumor size, followed by tail intravenous injection of corresponding drugs twice a week for a total of […]. After administration, the tumor volume of the mice was observed and measured regularly.

[3] = system: human non-small cell lung cancer cell line HCC827; test: Experimental example 3: HCC827 non-small cell lung cancer subcutaneous xenograft, tumor inhibition; conditions: D21 after administration; 10 mg/kg, IV, BIW×3W
Experimental: as §1, §2
The experimental example 3 was used to evaluate the inhibitory effect of BT001021 and BT001035 on proliferation of tumor-bearing mice models constructed by subcutaneous xenograft human tumor cells of HCC827 non-small cell lung cancer. […] Then changes in tumor volume and animal body weight were measured twice a week to calculate the efficacy (tumor inhibitory effect) of BT001021 and BT001035 on the tumor-bearing mice.
HCC827 cells were cultured in a 1640 culture medium containing 10% fetal bovine serum at 37° C. and 5% CO2. […] After administration, the tumor volume and body weight of the mice were observed and measured regularly. […]

Immu-132: positive drug; ADC prepared according to example 2 of WO2015/012904A2, DAR=5.4
Tumor Volume (mm^3) (x ± S) [1]: 259.04 ± 42.41 mm^3
Tumor growth inhibition rate (%) [1]: 46.46%
tumor growth of xenograft model mice (result in words) [2]: did not show significant inhibitory activity
Tumor Volume (mm^3) (x ± S) ([2]; D17 after administration): 2347.05 ± 317.79 mm^3
Tumor growth inhibition rate (%) ([2]; D17 after administration): 11.62%
TGI (%) [3]: 85.19%
Tumor Volume (mm^3) (x ± S) [3]: 145.94 ± 19.72 mm^3
